The values that follow come from patent EP4596574A1, “GLP-1/GCG/GIP TRIPLE-RECEPTOR AGONIST AND USE THEREOF” (Sunshine Lake Pharma Co., Ltd., priority 2022, dated 2024).

Data set [1] can be described thus: Glucose tolerance assessment in normal C57BL/6 mice (Example 4). Format: in vivo. The method in brief:
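Twelve hours after a single administration, mice were fasted 12 h and then given 2 g/kg glucose i.p. Tail-vein blood glucose was measured at baseline and at 15, 30, 60 and 90 min. AUC0–90min was calculated per dose group at 24 h post-dose.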

Data set [2] has as its target T1, GCGR (Homo sapiens, UniProt P47871).
T1 construct: expressed in transfected cells; host or cells: HEK293 (HEK293-GCGR)
Kind of data set: In vitro cell activity, cAMP production in HEK293 cells expressing GCGR. Format: cell-based. The method in brief:
(§1)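 cAMP output read as 665/620 nm HTRF ratio after adding cAMP-d2 plus anti-cAMP cryptate and incubating 1 h at room temperature in the dark or overnight at 4 °C. Cells: HEK293 expressing human GLP-1R or GCGR, plated from a 4×10^5 cells/mL suspension. Four-parameter fit gives EC50.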

For data set [3], the target named is T2, GLP-1R (Homo sapiens, UniProt P43220).
T2 construct: expressed in transfected cells; host or cells: HEK293 (HEK293-GLP-1R)
Kind of data set: In vitro cell activity, cAMP production in HEK293 cells expressing GLP-1R. Format: cell-based. The method in brief:
as §1

Data set [4] addresses T3, GIPR (Homo sapiens, UniProt P48546).
T3 construct: expressed in transfected cells; host or cells: HEK293 (HEK293-GIPR)
T3 sequence (P48546 22-466): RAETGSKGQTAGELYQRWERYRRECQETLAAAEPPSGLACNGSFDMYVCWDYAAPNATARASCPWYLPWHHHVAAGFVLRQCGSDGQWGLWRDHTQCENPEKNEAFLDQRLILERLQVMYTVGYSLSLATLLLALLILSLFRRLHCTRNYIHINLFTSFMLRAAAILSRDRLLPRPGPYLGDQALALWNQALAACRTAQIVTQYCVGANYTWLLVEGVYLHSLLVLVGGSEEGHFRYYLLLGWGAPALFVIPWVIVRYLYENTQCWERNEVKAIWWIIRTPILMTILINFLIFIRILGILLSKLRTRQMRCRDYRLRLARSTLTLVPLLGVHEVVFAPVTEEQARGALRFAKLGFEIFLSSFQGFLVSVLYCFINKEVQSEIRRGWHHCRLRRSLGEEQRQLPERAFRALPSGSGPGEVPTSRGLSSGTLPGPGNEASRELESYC
Kind of data set: In vitro cell activity, cAMP production in HEK293 cells expressing GIPR. Format: cell-based. The method in brief: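 HEK293 cells expressing human GIPR, thawed and diluted to 4×10^5 cells/mL, are stimulated with test compound. cAMP is measured by HTRF competition between cAMP-d2 and anti-cAMP cryptate. EC50 comes from a four-parameter nonlinear fit of signal ratio against concentration.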

A short description of data set [5]: Pharmacokinetic study in rats, single subcutaneous injection. As to conditions: male, Sprague Dawley, in vivo, sc, rat. The procedure: The pharmacokinetic study of each polypeptide compound prepared in Example 1 was conducted using male Sprague Dawley rats. There were 3 male rats in each group. […] The dose was 50 nmol/kg, and a single subcutaneous injection was given (see Table 3 for specific peptide compounds). After administration, plasma was collected on the specified days and time points, and the concentration of each peptide compound in the plasma was detected by LC-MS/MS method. The pharmacokinetic parameters were obtained based on the concentration data, which were used to describe the pharmacokinetic properties of the peptide in rats after subcutaneous injection. Table 3: Summary of pharmacokinetic parameters of some triple-target peptides in rats

A short description of data set [6]: Glucose tolerance assessment in normal C57BL/6 mice (Example 5). As to conditions: 3 nmol/kg s.c. single dose, 24 h after administration. Format: in vivo. The method in brief: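 Normal C57BL/6 mice given a single dose, fasted 12 h starting 12 h post-dose, then challenged with 2 g/kg glucose i.p. Tail-vein glucose measured at baseline and 15, 30, 60, 90 min. AUC0~90min calculated from the glucose–time curve per dose group.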

The mark [7] stands for this setting: 50 nmol/kg single subcutaneous injection, plasma.
[8] abbreviates: 50 nmol/kg single subcutaneous injection, plasma, read-out: T1/2 (converted).
The mark [9] stands for this setting: 50 nmol/kg single subcutaneous injection, plasma, read-out: Tmax.

Molecules are shown by their SMILES. Read-outs that look alike come from different tables or passages of the source. Marks after values point to notes of the source that are not given here.

T2 sequence (P43220 24-463, species assumed): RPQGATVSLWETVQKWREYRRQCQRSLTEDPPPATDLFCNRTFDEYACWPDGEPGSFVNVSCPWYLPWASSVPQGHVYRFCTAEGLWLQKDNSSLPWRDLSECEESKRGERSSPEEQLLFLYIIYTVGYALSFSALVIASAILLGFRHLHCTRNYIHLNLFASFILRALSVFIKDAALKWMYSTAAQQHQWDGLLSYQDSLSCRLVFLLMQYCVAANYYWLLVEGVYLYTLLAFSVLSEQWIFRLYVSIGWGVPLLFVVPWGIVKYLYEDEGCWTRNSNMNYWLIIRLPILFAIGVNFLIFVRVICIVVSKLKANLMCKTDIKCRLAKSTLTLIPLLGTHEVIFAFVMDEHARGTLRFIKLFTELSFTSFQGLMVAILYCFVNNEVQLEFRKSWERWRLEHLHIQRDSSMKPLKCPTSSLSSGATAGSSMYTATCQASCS
T1 sequence (P47871 26-477, species assumed): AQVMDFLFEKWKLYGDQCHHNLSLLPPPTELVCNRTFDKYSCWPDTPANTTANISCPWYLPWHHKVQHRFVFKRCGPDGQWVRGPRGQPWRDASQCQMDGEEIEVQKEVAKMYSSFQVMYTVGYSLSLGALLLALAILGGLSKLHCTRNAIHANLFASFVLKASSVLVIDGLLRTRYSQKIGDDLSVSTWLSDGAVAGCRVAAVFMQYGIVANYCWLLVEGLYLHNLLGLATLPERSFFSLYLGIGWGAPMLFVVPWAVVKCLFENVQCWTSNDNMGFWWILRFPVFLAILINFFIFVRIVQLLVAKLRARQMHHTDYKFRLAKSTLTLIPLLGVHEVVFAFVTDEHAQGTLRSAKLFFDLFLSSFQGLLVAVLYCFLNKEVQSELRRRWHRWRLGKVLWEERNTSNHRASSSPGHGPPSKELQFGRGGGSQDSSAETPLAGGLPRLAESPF

On to `CC[C@H](C)[C@H](NC(=O)[C@H](Cc1ccccc1)NC(=O)[C@H](C)NC(=O)[C@H](CCC(N)=O)NC(=O)[C@H](CCC(N)=O)NC(=O)[C@H](CCCNC(=N)N)NC(=O)[C@H](CCCCNC(=O)COCCOCCNC(=O)CC[C@H](NC(=O)CCCCCCCCCCCCCCCCC(=O)O)C(=O)O)NC(=O)[C@H](CCC(=O)O)NC(=O)[C@H](CC(=O)O)NC(=O)[C@H](CC(C)C)NC(=O)[C@H](CC(C)C)NC(=O)[C@@H](NC(=O)[C@H](CO)NC(=O)[C@H](Cc1ccc(O)cc1)NC(=O)[C@H](CC(=O)O)NC(=O)[C@H](CO)NC(=O)[C@@H](NC(=O)[C@](C)(Cc1ccccc1F)NC(=O)[C@@H](NC(=O)CNC(=O)[C@H](CCC(N)=O)NC(=O)C(C)(C)NC(=O)[C@@H](N)Cc1ccc(O)cc1)[C@@H](C)O)[C@@H](C)O)[C@@H](C)CC)C(=O)N[C@@H](CCC(=O)O)C(=O)N[C@@H](Cc1ccc(O)cc1)C(=O)N[C@@H](CC(C)C)C(=O)N[C@@H](CC(C)C)C(=O)N[C@@H](CCC(=O)O)C(=O)NCC(=O)NCC(=O)N1CCC[C@H]1C(=O)N[C@@H](CO)C(=O)N[C@@H](CO)C(=O)NCC(=O)N[C@@H](C)C(=O)N1CCC[C@H]1C(=O)N1CCC[C@H]1C(=O)N1CCC[C@H]1C(=O)N[C@@H](CO)C(=O)O` [HEC-PT82], for which the “Blood glucose level (mM) 15 min” value in data set [1] (3 nmol/kg s.c. single dose, 24 h after administration, 15 min after 2 g/kg glucose i.p.) was 12.4 ± 4.3 mM. The “Blood glucose level (mM) 30 min” value in data set [1] (3 nmol/kg s.c. single dose, 24 h after administration, 30 min after 2 g/kg glucose i.p.) came to 7.6 ± 1.5 mM. The “Blood glucose level (mM) 60 min” value in data set [1] (3 nmol/kg s.c. single dose, 24 h after administration, 60 min after 2 g/kg glucose i.p.) amounted to 6.9 ± 0.8 mM. Also, in data set [1] (3 nmol/kg s.c. single dose, 24 h after administration, 90 min after 2 g/kg glucose i.p.), the “Blood glucose level (mM) 90 min” value turned out to be 6.6 ± 0.6 mM. Also, the “Blood glucose level (mM) 0 min” value in data set [1] (3 nmol/kg s.c. single dose, 24 h after administration, basal before 2 g/kg glucose i.p.) was determined as 3.8 ± 0.6 mM. Besides, in data set [1] (24 hours after a single administration, 3 nmol/kg), the “improvement of glucose tolerance compared with LY3298176” value is given as “more effective in improving glucose tolerance than the positive control LY3298176”. The AUC0-90 min in data set [1] (blood glucose AUC, 3 nmol/kg s.c. single dose, 24 h after administration, 2 g/kg glucose i.p.) is on record as 691.8±116.4^a. Further, the EC50 in data set [2] was found to be 0.615 nM; in data set [3], 0.36 nM; in data set [4], 0.0831 nM. Further, in data set [5] (setting [7]), the area under the curve AUC(0-inf) stood at 29400 ± 3050 ng·h/mL. The compound further showed an AUC(0-t) in data set [5] (setting [7]) of 29100 ± 3030 ng·h/mL. The compound also gave a Cmax in data set [5] (setting [7]) of 836 ± 217 ng/mL. Moreover, the half-life in data set [5] (setting [8]) was 17 ± 0.8 h. In data set [5] (setting [9]), the time of peak concentration (Tmax) is 8.7 ± 2.3 h.

Regarding `CC[C@H](C)[C@H](NC(=O)[C@H](Cc1ccccc1)NC(=O)[C@H](C)NC(=O)[C@H](CCC(N)=O)NC(=O)[C@H](CCC(N)=O)NC(=O)[C@H](CCCNC(=N)N)NC(=O)[C@H](CCCCNC(=O)COCCOCCNC(=O)CC[C@H](NC(=O)CCCCCCCCCCCCCCCCCCC(=O)O)C(=O)O)NC(=O)[C@H](CCC(=O)O)NC(=O)[C@H](CC(=O)O)NC(=O)[C@H](CC(C)C)NC(=O)[C@H](CC(C)C)NC(=O)[C@@H](NC(=O)[C@H](CO)NC(=O)[C@H](Cc1ccc(O)cc1)NC(=O)[C@H](CC(=O)O)NC(=O)[C@H](CO)NC(=O)[C@@H](NC(=O)[C@](C)(Cc1ccccc1F)NC(=O)[C@@H](NC(=O)CNC(=O)[C@H](Cc1c[nH]cn1)NC(=O)C(C)(C)NC(=O)[C@@H](N)Cc1ccc(O)cc1)[C@@H](C)O)[C@@H](C)O)[C@@H](C)CC)C(=O)N[C@@H](CCC(=O)O)C(=O)N[C@@H](Cc1ccc(O)cc1)C(=O)N[C@@H](CC(C)C)C(=O)N[C@@H](CC(C)C)C(=O)N[C@@H](CCC(=O)O)C(=O)NCC(=O)NCC(=O)N1CCC[C@H]1C(=O)N[C@@H](CO)C(=O)N[C@@H](CO)C(=O)NCC(=O)N[C@@H](C)C(=O)N1CCC[C@H]1C(=O)N1CCC[C@H]1C(=O)N1CCC[C@H]1C(=O)N[C@@H](CO)C(=O)O` [HEC-PT93], the concentration giving a half-maximal response (EC50) is 0.354 nM in data set [2] (HEK293-GCGR cells, cAMP, read-out: GCGR (EC50)); 1.17 nM in data set [3] (HEK293-GLP-1R cells, cAMP, read-out: GLP-1R (EC50)); 0.159 nM in data set [4] (HEK293-GIPR cells, cAMP, read-out: GIPR (EC50)). Further, in data set [5], the time to peak (Tmax) came out at 25 ± 2.3 h. For the same compound, in data set [5] (50 nmol/kg), the half-life is 19 ± 1.2 h.

`CC[C@H](C)[C@H](NC(=O)[C@H](Cc1ccccc1)NC(=O)[C@H](CCC(=O)O)NC(=O)[C@H](CCCNC(=N)N)NC(=O)[C@H](CCC(N)=O)NC(=O)[C@H](CCCNC(=N)N)NC(=O)[C@H](CCCCNC(=O)COCCOCCNC(=O)CC[C@H](NC(=O)CCCCCCCCCCCCCCCCCCC(=O)O)C(=O)O)NC(=O)[C@H](CCC(=O)O)NC(=O)[C@H](CC(=O)O)NC(=O)[C@H](CC(C)C)NC(=O)[C@H](CC(C)C)NC(=O)[C@@H](NC(=O)[C@H](CO)NC(=O)[C@H](Cc1ccc(O)cc1)NC(=O)[C@H](CC(=O)O)NC(=O)[C@H](CO)NC(=O)[C@@H](NC(=O)[C@](C)(Cc1ccccc1F)NC(=O)[C@@H](NC(=O)CNC(=O)[C@H](Cc1c[nH]cn1)NC(=O)C(C)(C)NC(=O)[C@@H](N)Cc1ccc(O)cc1)[C@@H](C)O)[C@@H](C)O)[C@@H](C)CC)C(=O)N[C@@H](CCC(=O)O)C(=O)N[C@@H](Cc1c[nH]c2ccccc12)C(=O)N[C@@H](CC(C)C)C(=O)N[C@@H](CC(C)C)C(=O)N[C@@H](C)C(=O)NCC(=O)NCC(=O)N1CCC[C@H]1C(=O)N[C@@H](CO)C(=O)N[C@@H](CO)C(=O)NCC(=O)N[C@@H](C)C(=O)N1CCC[C@H]1C(=O)N1CCC[C@H]1C(=O)N1CCC[C@H]1C(=O)N[C@@H](CO)C(=O)O` [HEC-PT96]: the EC50 is 0.192 nM in data set [2], 0.158 nM in data set [3] and 0.149 nM in data set [4]. The compound also had an AUC(0-inf) in data set [5] (setting [7]) of 40900 ± 1990 ng·h/mL. In data set [5] (setting [7]), this compound displayed an AUC(0-t) of 40300 ± 1930 ng·h/mL. The compound also gave a maximum concentration (Cmax) in data set [5] (setting [7]) of 840 ± 41.4 ng/mL. Moreover, in data set [5] (setting [8]), the half-life is 17 ± 0.65 h. In addition, the Tmax in data set [5] (setting [9]) was 25 ± 2.3 h. The “Blood glucose level (mM) 15 min” value in data set [6] (15 min after 2 g/kg glucose i.p.) is 13.0 ± 2.9 mM. In addition, the “Blood glucose level (mM) 30 min” value in data set [6] (30 min after 2 g/kg glucose i.p.) is 10.8 ± 3.2 mM. In data set [6] (60 min after 2 g/kg glucose i.p.), the “Blood glucose level (mM) 60 min” value was 7.9 ± 1.6 mM. For the same compound, the “Blood glucose level (mM) 90 min” value in data set [6] (90 min after 2 g/kg glucose i.p.) was 6.2 ± 1.3 mM. In addition, in data set [6] (basal before 2 g/kg glucose i.p.), the “Blood glucose level (mM) 0 min” value was 4.2 ± 0.6 mM. Also, in data set [6] (blood glucose AUC, 2 g/kg glucose i.p.), the AUC0-90 min was 798.9±146.0^a.
